Experimental data published in US12679836B2, “4H-pyrrolo[3,2-c]pyridin-4-one compounds” (Bayer Aktiengesellschaft, priority 2019, dated 2026).
Where two headings read alike, the source gives them in different places.

Columns and labels:
Ba/F3-EGFR-WT cells = Ba/F3-EGFR-WT cells (Homo sapiens, UniProt P00533); assay: Ba/F3 cell survival assay (Cell Titer-Glo), WT EGFR; assay type: cell-based; details: without IL-3, with 10 ng/mL EGF, 48 h; read-out: BA/F3 (wild type) IC50
How it was run: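 Ba/F3 cells stably expressing WT EGFR or EGFR-insSVD from retroviral transduction were grown without IL-3 on 10 ng/mL EGF. Cells were plated at 4000 cells/well, treated with compound for 48 h at 37° C, and viability was read by CellTiter-Glo luminescence.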

Bub1 = biological target: T1, Bub1 (Homo sapiens, UniProt O43683); assay: Bub1 TR-FRET high ATP kinase assay; assay type: biochemical; details: 2 mM ATP
T1 construct: catalytic domain of human Bub1 (amino acids 704-1085); His6 (N); made in house; host or cells: Hi5 insect cells
T1 sequence (O43683 704-1085): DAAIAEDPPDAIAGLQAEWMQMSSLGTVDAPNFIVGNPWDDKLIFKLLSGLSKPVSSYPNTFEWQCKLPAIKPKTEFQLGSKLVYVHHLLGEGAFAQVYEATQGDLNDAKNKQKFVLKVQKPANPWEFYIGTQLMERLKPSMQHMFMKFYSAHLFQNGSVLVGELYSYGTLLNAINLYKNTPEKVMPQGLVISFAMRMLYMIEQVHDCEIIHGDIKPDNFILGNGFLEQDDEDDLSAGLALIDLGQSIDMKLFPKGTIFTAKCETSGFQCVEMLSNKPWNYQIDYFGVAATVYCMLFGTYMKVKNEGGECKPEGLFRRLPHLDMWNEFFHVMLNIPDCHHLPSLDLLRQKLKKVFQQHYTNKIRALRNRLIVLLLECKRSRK
How it was run: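 Recombinant His6-tagged human Bub1 catalytic domain (aa 704-1085), from Hi5 insect cells, phosphorylating a biotinylated peptide substrate at high ATP concentration. TR-FRET read-out.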

[1] = system: HCC-827 cells (EGFRex19del); assay: HCC-827 proliferation assay (Cell Titer Glo); assay type: cell-based; details: Homo sapiens, HCC827, 72 h
Procedure: Cellular Data Description (HCC-827 Cells, EGFRex19del)
HCC-827 cells were purchased from ATCC. […] cells per well were seeded in growth medium (RPM11640, 10% FCS) in a 384-well plate (CORNING #3571). Seed reference plate for time zero determination on the same day. All plates were incubated overnight at 37° C. After 24 hours, test compound were added in 7-step dilution using HP Compound printer and incubated at 37° C. for 72 h. After 3 days, 30 μL/well CTG solution (Promega Cell Titer Glo solution; catalog # G755B and G756B) were added to each well, incubated for 30 minutes and the plate were read on PheraStar. Proliferation is calculated after subtracting time zero luminescence values from day 4 values and comparing to untreated wells.
The IC50 values were determined using the four parameter fit.

[2] = Bub1 high ATP (2 mM) IC50 [mol/l]

Ba/F3-EGFR-WT cells, sequence (P00533 whole entry, stated change not applied): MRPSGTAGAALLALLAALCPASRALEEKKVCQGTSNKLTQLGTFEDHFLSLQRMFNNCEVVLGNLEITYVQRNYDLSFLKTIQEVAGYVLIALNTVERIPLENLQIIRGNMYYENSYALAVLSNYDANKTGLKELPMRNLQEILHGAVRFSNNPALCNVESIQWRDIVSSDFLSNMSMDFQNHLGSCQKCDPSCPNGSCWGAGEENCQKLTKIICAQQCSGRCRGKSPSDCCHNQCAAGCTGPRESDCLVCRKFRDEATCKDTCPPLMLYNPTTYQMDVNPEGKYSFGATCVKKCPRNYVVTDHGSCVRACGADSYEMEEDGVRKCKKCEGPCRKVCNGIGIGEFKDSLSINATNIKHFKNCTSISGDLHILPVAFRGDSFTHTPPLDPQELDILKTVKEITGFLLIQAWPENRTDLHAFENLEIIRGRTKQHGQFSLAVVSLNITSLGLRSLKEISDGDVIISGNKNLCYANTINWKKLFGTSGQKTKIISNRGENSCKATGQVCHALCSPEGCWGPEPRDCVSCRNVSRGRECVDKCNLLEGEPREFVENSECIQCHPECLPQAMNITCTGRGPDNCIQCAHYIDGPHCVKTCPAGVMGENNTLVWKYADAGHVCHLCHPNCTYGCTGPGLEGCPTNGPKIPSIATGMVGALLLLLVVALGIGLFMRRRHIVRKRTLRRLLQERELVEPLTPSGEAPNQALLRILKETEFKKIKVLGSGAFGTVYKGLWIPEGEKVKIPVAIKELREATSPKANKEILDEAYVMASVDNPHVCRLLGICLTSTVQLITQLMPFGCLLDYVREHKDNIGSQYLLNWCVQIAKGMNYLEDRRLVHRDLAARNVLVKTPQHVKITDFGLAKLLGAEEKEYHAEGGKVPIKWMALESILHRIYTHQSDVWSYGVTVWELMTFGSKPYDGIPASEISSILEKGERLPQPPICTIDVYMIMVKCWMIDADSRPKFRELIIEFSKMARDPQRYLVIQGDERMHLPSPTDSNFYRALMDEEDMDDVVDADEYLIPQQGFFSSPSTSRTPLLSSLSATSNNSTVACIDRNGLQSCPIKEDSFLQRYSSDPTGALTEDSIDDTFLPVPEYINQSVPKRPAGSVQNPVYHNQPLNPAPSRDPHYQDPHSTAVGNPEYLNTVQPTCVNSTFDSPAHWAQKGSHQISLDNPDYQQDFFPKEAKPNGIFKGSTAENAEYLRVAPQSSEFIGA

Row | Compound | GI50 (Ba/F3-EGFR-WT cells) | IC50 (Bub1; [2]) | IC50 [1] | IC50 (Bub1; read-out: Bub1 high ATP (2 mM) IC50 [mol/l])
1 | COc1c(Cl)cccc1Nc1c(-c2ccncc2OC[C@@H]2COCCO2)[nH]c2c1C(=O)NCC2 (single isomer, unassigned) [Example 2] | 292 nM | 6040 nM | < 3 nM | –
2 | COc1c(F)cccc1Nc1c(-c2ccncc2OCC2COCCO2)[nH]c2c1C(=O)NCC2 (single isomer, unassigned) [Example 5, 2-{3-[(1,4-dioxan-2-yl)methoxy]pyridin-4-yl}-3-(3-fluoro-2-methoxyanilino)-1,5,6,7-tetrahydro-4H-pyrrolo[3,2-c]pyridin-4-one] | 262 nM | 12900 nM | – | –
3 | O=C1NCCc2[nH]c(-c3ccncc3OCC3COCCO3)c(Nc3cccc(Cl)c3Cl)c21 (single isomer, unassigned) [Example 8, 3-(2,3-dichloroanilino)-2-{3-[(1,4-dioxan-2-yl)methoxy]pyridin-4-yl}-1,5,6,7-tetrahydro-4H-pyrrolo[3,2-c]pyridin-4-one] | 121 nM | 7880 nM | < 3 nM | –
4 | COc1c(F)cccc1Nc1c(-c2ccncc2OCC2CN(C)CCO2)[nH]c2c1C(=O)NCC2 (single isomer, unassigned) [Example 14, 3-(3-fluoro-2-methoxyanilino)-2-{3-[(4-methylmorpholin-2-yl)methoxy]pyridin-4-yl}-1,5,6,7-tetrahydro-4H-pyrrolo[3,2-c]pyridin-4-one] | 387 nM | – | < 3 nM | > 20000 nM
5 | COc1c(Cl)cccc1Nc1c(-c2ccncc2OCC2COC(C)(C)CO2)[nH]c2c1C(=O)NCC2 (single isomer, unassigned) [Example 32, 3-(3-chloro-2-methoxyanilino)-2-{3-[(5,5-dimethyl-1,4-dioxan-2-yl)methoxy]pyridin-4-yl}-1,5,6,7-tetrahydro-4H-pyrrolo[3,2-c]pyridin-4-one] | – | – | < 3 nM | –
6 | Cc1c(Cl)cccc1Nc1c(-c2ccncc2OCC2COC(C)(C)CO2)[nH]c2c1C(=O)NCC2 (single isomer, unassigned) [Example 46, 3-(3-chloro-2-methyl-anilino)-2-[3-[(5,5-dimethyl-1,4-dioxan-2-yl)methoxy]-4-pyridyl]-1,5,6,7-tetrahydropyrrolo[3,2-c]pyridin-4-one] | 376 nM | 13000 nM | < 3 nM | –
7 | Cc1c(F)cccc1Nc1c(-c2ccncc2OCC2COCCO2)[nH]c2c1C(=O)NCC2 (single isomer, unassigned) [Example 48, 2-[3-(1,4-dioxan-2-ylmethoxy)-4-pyridyl]-3-(3-fluoro-2-methyl-anilino)-1,5,6,7-tetrahydropyrrolo[3,2-c]pyridin-4-one] | 379 nM | 12200 nM | < 3 nM | –
8 | Cc1c(Cl)cccc1Nc1c(-c2ccncc2OC[C@H]2COCCO2)[nH]c2c1C(=O)NCC2 (single isomer, unassigned) [Example 50] | 361 nM | 3540 nM | < 3 nM | –
9 | COc1c(F)cccc1Nc1c(-c2ccncc2OC[C@@H]2COCCN2C)[nH]c2c1C(=O)NCC2 [Example 20, 3-(3-fluoro-2-methoxyanilino)-2-(3-{[(3S)-4-methylmorpholin-3-yl]methoxy}pyridin-4-yl)-1,5,6,7-tetrahydro-4H-pyrrolo[3,2-c]pyridin-4-one] | 313 nM | 9530 nM | < 3 nM | –
10 | COc1c(Cl)cccc1Nc1c(-c2ccncc2OC[C@@H]2COCCN2C)[nH]c2c1C(=O)NCC2 [Example 21, 3-(3-chloro-2-methoxyanilino)-2-(3-{[(3S)-4-methylmorpholin-3-yl]methoxy}pyridin-4-yl)-1,5,6,7-tetrahydro-4H-pyrrolo[3,2-c]pyridin-4-one] | 341 nM | 3790 nM | < 3 nM | –
11 | Cc1c(Cl)cccc1Nc1c(-c2ccncc2OC[C@@H]2CN(C)CCO2)[nH]c2c1C(=O)NCC2 [Example 42, 3-(3-chloro-2-methylanilino)-2-(3-{[(2S)-4-methylmorpholin-2-yl]methoxy}pyridin-4-yl)-1,5,6,7-tetrahydro-4H-pyrrolo[3,2-c]pyridin-4-one] | 596 nM | > 20000 nM | < 3 nM | –
12 | CCc1c(Cl)cccc1Nc1c(-c2ccncc2OC[C@@H]2CN(C)CCO2)[nH]c2c1C(=O)NCC2 [Example 56, 3-(3-chloro-2-ethylanilino)-2-(3-{[(2S)-4-methylmorpholin-2-yl]methoxy}pyridin-4-yl)-1,5,6,7-tetrahydro-4H-pyrrolo[3,2-c]pyridin-4-one] | 435 nM | 16500 nM | < 3 nM | –
